Values after ≈ are worked out from the molar mass of the structure shown. Active and inactive are the calls of the source. The rule behind the calls is not given here.
Legend:
[1] = system: Streptococcus pyogenes; experiment: Potency index, ratio of oxacillin sodium MIC to test compound MIC for penicillin-resistant Streptococcus pyogenes; format: functional
[2] = system: Bacillus pumilus; experiment: Antibacterial activity against penicillin-susceptible Bacillus pumilus ATCC 63202 after 24 hrs by broth microdilution method; format: functional; details: ATCC 63202, 24 h
[3] = system: Bacillus subtilis; experiment: Antibacterial activity against penicillin-susceptible Bacillus subtilis ATCC 9372 after 24 hrs by broth microdilution method; format: functional; details: ATCC 9372, 24 h
[4] = system: Streptococcus pyogenes; experiment: Potency index, ratio of ciprofloxacin MIC to test compound MIC for penicillin-resistant Streptococcus pyogenes; format: functional
[5] = system: Staphylococcus aureus; experiment: Bactericidal activity against penicillin-susceptible Staphylococcus aureus ATCC 25923 after 24 hrs by flat colony counting method; format: functional; details: ATCC 25923, 24 h
[6] = system: Streptococcus pyogenes; experiment: Antibacterial activity against penicillin-susceptible Streptococcus pyogenes after 24 hrs by broth microdilution method; format: functional
[7] = system: Staphylococcus aureus; experiment: Potency index, ratio of ciprofloxacin MIC to test compound MIC for penicillin-susceptible Staphylococcus aureus ATCC 25923; format: functional
[8] = system: Staphylococcus aureus; experiment: Antibacterial activity against methicillin-resistant Staphylococcus aureus ATCC 43300 after 24 hrs by broth microdilution method; format: functional; details: ATCC 43300, 24 h
[9] = system: Streptococcus pyogenes; experiment: Potency index, ratio of oxacillin sodium MIC to test compound MIC for penicillin-susceptible Streptococcus pyogenes; format: functional
[10] = system: Streptococcus pyogenes; experiment: Potency index, ratio of ciprofloxacin MIC to test compound MIC for penicillin-susceptible Streptococcus pyogenes; format: functional
[11] = system: Staphylococcus aureus; experiment: Potency index, ratio of ciprofloxacin MIC to test compound MIC for methicillin-resistant Staphylococcus aureus ATCC 43300; format: functional
[12] = system: Staphylococcus aureus; experiment: Potency index, ratio of oxacillin sodium MIC to test compound MIC for penicillin-resistant Staphylococcus aureus clinical isolate; format: functional
[13] = system: Escherichia coli; experiment: Antibacterial activity against penicillin-susceptible Escherichia coli ATCC 25922 after 24 hrs by broth microdilution method; format: functional; details: ATCC 25922, 24 h
[14] = system: Staphylococcus aureus; experiment: Antibacterial activity against penicillin-resistant Staphylococcus aureus clinical isolate after 24 hrs by broth microdilution method; format: functional
[15] = system: Staphylococcus aureus; experiment: Antibacterial activity against penicillin-susceptible Staphylococcus aureus ATCC 25923 after 24 hrs by broth microdilution method; format: functional; details: ATCC 25923, 24 h
[16] = system: Staphylococcus epidermidis; experiment: Potency index, ratio of ciprofloxacin MIC to test compound MIC for penicillin-resistant Staphylococcus epidermidis clinical isolate; format: functional
[17] = system: Staphylococcus aureus; experiment: Potency index, ratio of oxacillin sodium MIC to test compound MIC for penicillin-susceptible Staphylococcus aureus ATCC 25923; format: functional
[18] = system: Streptococcus pyogenes; experiment: Antibacterial activity against penicillin-resistant Streptococcus pyogenes after 24 hrs by broth microdilution method; format: functional
[19] = system: Staphylococcus epidermidis; experiment: Antibacterial activity against penicillin-resistant Staphylococcus epidermidis clinical isolate after 24 hrs by broth microdilution method; format: functional
[20] = system: Staphylococcus aureus; experiment: Potency index, ratio of ciprofloxacin MIC to test compound MIC for penicillin-resistant Staphylococcus aureus clinical isolate; format: functional
[21] = system: Staphylococcus aureus; experiment: Potency index, ratio of oxacillin sodium MIC to test compound MIC for methicillin-resistant Staphylococcus aureus ATCC 43300; format: functional
[22] = target: T1, Cell division protein FtsZ (Bacillus subtilis) (UniProt A5Z1V5); experiment: Inhibition of penicillin-susceptible Bacillus subtilis ATCC 9372 N-terminal His6-tagged FtsZ expressed in Escherichia coli BL21 (DE3) cells by fluorescence spectrophotometer-based light scattering assay
T1 sequence (whole entry): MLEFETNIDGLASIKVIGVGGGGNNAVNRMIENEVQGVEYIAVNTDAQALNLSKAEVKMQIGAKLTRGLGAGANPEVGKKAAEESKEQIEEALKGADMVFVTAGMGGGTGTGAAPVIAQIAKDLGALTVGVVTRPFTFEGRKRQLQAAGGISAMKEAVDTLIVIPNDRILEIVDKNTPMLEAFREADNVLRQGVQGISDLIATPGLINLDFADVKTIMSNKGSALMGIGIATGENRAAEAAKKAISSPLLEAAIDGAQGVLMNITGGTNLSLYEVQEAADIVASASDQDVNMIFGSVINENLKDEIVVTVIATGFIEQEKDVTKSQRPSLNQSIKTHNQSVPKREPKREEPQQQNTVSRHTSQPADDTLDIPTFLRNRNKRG

[23] = system: Pseudomonas aeruginosa; experiment: Antibacterial activity against penicillin-susceptible Pseudomonas aeruginosa ATCC 27853 after 24 hrs by broth microdilution method; format: functional; details: ATCC 27853, 24 h
[24] = system: Staphylococcus epidermidis; experiment: Potency index, ratio of oxacillin sodium MIC to test compound MIC for penicillin-resistant Staphylococcus epidermidis clinical isolate; format: functional
[25] = target: T1, Cell division protein FtsZ (Bacillus subtilis); experiment: Inhibition of penicillin-susceptible Bacillus subtilis ATCC 9372 N-terminal His6-tagged FtsZ expressed in Escherichia coli BL21 (DE3) cells at 10 ug/ml by fluorescence spectrophotometer-based light scattering assay
[26] = target: T1, Cell division protein FtsZ (Bacillus subtilis); experiment: Inhibition of FtsZ in penicillin-susceptible Bacillus subtilis ATCC 9372 assessed as increase in length of bacteria at 8 ug/ml after 5 hrs by phase-contrast light microscopic method
[27] = target: T2, Cell division protein FtsZ (Staphylococcus aureus) (UniProt P0A031); experiment: Inhibition of FtsZ in penicillin-susceptible Staphylococcus aureus ATCC 25923 assessed as increase in length of bacteria at 4 ug/ml after 5 hrs by phase-contrast light microscopic method
T2 sequence (whole entry): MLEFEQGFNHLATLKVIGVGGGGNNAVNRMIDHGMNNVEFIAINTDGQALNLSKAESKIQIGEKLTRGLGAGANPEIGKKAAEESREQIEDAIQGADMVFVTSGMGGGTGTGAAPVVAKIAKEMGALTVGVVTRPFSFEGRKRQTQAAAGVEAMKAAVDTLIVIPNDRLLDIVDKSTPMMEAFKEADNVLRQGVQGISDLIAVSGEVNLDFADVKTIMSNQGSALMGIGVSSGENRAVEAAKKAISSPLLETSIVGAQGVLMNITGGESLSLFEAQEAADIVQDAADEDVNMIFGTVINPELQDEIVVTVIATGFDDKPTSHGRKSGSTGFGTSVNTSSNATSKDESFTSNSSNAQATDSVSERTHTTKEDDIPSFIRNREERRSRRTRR

SMILES	MIC [2] [mg/L]	MIC [3] [mg/L]	MBC [5] [mg/L]	MIC [6] [mg/L]	Ratio [7]	MIC [8] [mg/L]	Ratio [11]	Ratio [12]	MIC [13] [mg/L]	MIC [14] [mg/L]	MIC [15] [mg/L]	Ratio [17]	MIC [18] [mg/L]	MIC [19] [mg/L]	Ratio [20]	Ratio [21]	MIC [23] [mg/L]	also measured
Cc1cc(-c2ccc(-c3ccccc3)cc2)cc2c3ccccc3c[n+](C)c12.[Cl-]	0.125	0.125	64	1	133	0.5	4 - 164	256	> 64	0.25	0.06	67	2	0.125	64	16 - 256	> 64	Ratio [1]: 32; Ratio [4]: 32; Ratio [9]: 1; Ratio [10]: 8; Ratio [16]: 512; inhibition [22]: Dose-dependent effect; Ratio [24]: 512
O=C(O)c1cn(C2CC2)c2cc(N3CCNCC3)c(F)cc2c1=O [CIPROFLOXACIN]	8 (≈ 24.1 µM)	2 (≈ 6.04 µM)		8 (≈ 24.1 µM)							8 (≈ 24.1 µM)		> 64					inhibition [25]: Active
Cc1cc(-c2ccccc2C(F)(F)F)cc2c3ccccc3c[n+](C)c12.[Cl-]	2	0.5	32	2	8 - 133	1	4 - 164	16 - 256	> 64	1	0.5	4 - 67	2	0.5	4 - 64	16 - 256	> 64	
C[n+]1cc2c3c(ccc2c2ccc4cc5c(cc4c21)OCO5)OCO3.[Cl-] [SANGUINARIUM CHLORIDE]	4	4		4		8			> 64	4	8		4	8			> 64	inhibition [26]: Active; inhibition [27]: Active
